According to PMC10247784, “Physiological activation of human and mouse bitter taste receptors by bile acids” (Communications Biology, 2023):
Several values for one entry are separate records, joined by “and”; a condition that tells them apart may be missing. Equal entries are not always repeated.

Target: T1, human TAS2R4 (Homo sapiens, UniProt Q9NYW5)
T1 construct: expressed in transfected cells; host or cells: HEK293T-Gα16gust44
T1 sequence (Q9NYW5 1-299): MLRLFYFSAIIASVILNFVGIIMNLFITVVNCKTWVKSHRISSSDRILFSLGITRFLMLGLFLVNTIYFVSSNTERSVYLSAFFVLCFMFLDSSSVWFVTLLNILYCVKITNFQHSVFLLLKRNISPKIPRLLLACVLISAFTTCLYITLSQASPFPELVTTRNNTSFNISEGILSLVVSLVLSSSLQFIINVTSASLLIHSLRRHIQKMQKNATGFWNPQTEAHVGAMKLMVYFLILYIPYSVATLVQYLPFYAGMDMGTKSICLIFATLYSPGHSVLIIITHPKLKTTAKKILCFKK
Experiment: Calcium imaging assay (FLIPR), HEK293T-Gα16gust44 cells transfected with human TAS2R4
Assay type: cell-based
Description: This set of bile acids was chosen because of their commercial availability in high purities, their diversity within the class of bile acids and their previous detection and quantitation in human blood. Stock solutions were prepared in DMSO.
As basal growth medium for the HEK293T-Gα16gust44 cell line[17],[59] served Dulbecco’s modified eagle medium (DMEM) (Thermo Fisher Scientific, Darmstadt, Germany) supplemented with 10 % fetal bovine serum (Sigma-Aldrich, Steinheim, Germany), 2 mM L-glutamine (Sigma-Aldrich, Steinheim, Germany), 100 units/ml penicillin (Sigma Aldrich, Steinheim, Germany) and 100 µg/ml streptomycin (Sigma Aldrich, Steinheim, Germany). Growth conditions were 37 °C, 5 % CO2 and saturated air-humidity[60].
HEK293T-Gα16gust44 cells were seeded on poly-D-lysine (10 µg/ml) coated 96-well plates to reach a confluence of 40-60 % the next day. For transient transfection 150 ng of plasmid DNA containing the receptor of interest and 0.3 µl lipofectamine 2000 (Thermo Fisher Scientific, Darmstadt, Germany) per well were used and transfection took place according to the manual of lipofectamine 2000. […] The empty vector DNA (mock) was transfected as negative control[14],[41].
Cells were loaded using the calcium-sensitive fluorescent dye Fluo-4-AM (Abcam, Cambridge, Great Britain) in the presence of 2.5 mM probenecid (Sigma-Aldrich, Steinheim, Germany) the day after transfection[13],[41]. 1 h after loading, cells were washed with C1 buffer using a BioTek Cell Washer, incubated in the dark for half an hour and washed again. For automated agonist application and measurement of fluorescence changes, a FLIPR^TETRA device (Molecular Devices, San José, United States) was used. Viability of cells was tested by application of 100 nM Somatostatin 14 (Bachem, Bubendorf, Switzerland)[42].
Measured data were negative control corrected by subtracting the signal of the mock-transfected cells and exported to Microsoft Excel using the FLIPR software ScreenWorks 4.2. In Microsoft Excel software, standardization of maximum fluorescence intensities to the basal fluorescence and normalization to the buffer-only control was done to calculate the relative fluorescence changes (ΔF/F).
Initial screening experiments performed in duplicate wells were confirmed by at least one replication and representative traces were selected for display. All dose-response relationships were determined by three independent experiments (biological replicates) performed in duplicates (technical replicates). Threshold concentrations, defined as lowest substance concentrations leading to statistically significant elevated fluorescence changes in receptor-transfected cells compared with empty vector-transfected cells, were determined using SigmaPlot with Student’s t-test to evaluate statistical significance (p < 0.01).

## C[C@H](CCC(=O)O)[C@H]1CC[C@H]2[C@@H]3[C@H](O)C[C@@H]4C[C@H](O)CC[C@]4(C)[C@H]3C[C@H](O)[C@]12C [Cholic Acid, cholic acid]
TAS2R4, bile acids, mean
  Efficacy = maximal amplitude (ΔF/F): 0.1231
TAS2R4, bile acids, single replicates, listed as CA
  Efficacy (maximal amplitude ΔF/F), individual data points: 0.1201 and 0.127 and 0.1223
Time (s) 0
  RLU, fluorescence trace: 0 RLU
Time (s) 2
  RLU, fluorescence trace: 19.1006 RLU
Time (s) 4
  RLU, fluorescence trace: 0.3953 RLU
Time (s) 6
  RLU, fluorescence trace: 2.918 RLU
Time (s) 8
  RLU, fluorescence trace: 21.2897 RLU
Time (s) 12
  RLU, fluorescence trace: 0.674 RLU
Time (s) 14
  RLU, fluorescence trace: -1.277 RLU
Time (s) 16
  RLU, fluorescence trace: 19.6047 RLU
Time (s) 18
  RLU, fluorescence trace: 0.9534 RLU
Time (s) 18.766 (TCA, TLCA: 18.782)
  RLU, fluorescence trace: -8.812 RLU
Time (s) 20.781 (TCA, TLCA: 20.782)
  RLU, fluorescence trace: -52.2052 RLU
Time (s) 22.781 (TCA, TLCA: 22.782)
  RLU, fluorescence trace: 12.9621 RLU
Time (s) 24.781 (TCA, TLCA: 24.782)
  RLU, fluorescence trace: 16.2873 RLU
Time (s) 26.781 (TCA, TLCA: 26.782)
  RLU, fluorescence trace: 53.8077 RLU
Time (s) 28.781 (TCA, TLCA: 28.782)
  RLU, fluorescence trace: 116.69 RLU
Time (s) 30.781 (TCA, TLCA: 30.782)
  RLU, fluorescence trace: 202.767 RLU
Time (s) 32.781 (TCA, TLCA: 32.782)
  RLU, fluorescence trace: 286.976 RLU
Time (s) 34.781 (TCA, TLCA: 34.782)
  RLU, fluorescence trace: 331.157 RLU
Time (s) 36.781 (TCA, TLCA: 36.782)
  RLU, fluorescence trace: 398.002 RLU
Time (s) 38.781 (TCA, TLCA: 38.782)
  RLU, fluorescence trace: 447.116 RLU
Time (s) 40.781 (TCA, TLCA: 40.782)
  RLU, fluorescence trace: 484.385 RLU
Time (s) 42.781 (TCA, TLCA: 42.782)
  RLU, fluorescence trace: 513.813 RLU
Time (s) 44.781 (TCA, TLCA: 44.782)
  RLU, fluorescence trace: 571.4 RLU
Time (s) 46.781 (TCA, TLCA: 46.782)
  RLU, fluorescence trace: 576.681 RLU
Time (s) 48.781 (TCA, TLCA: 48.782)
  RLU, fluorescence trace: 621.92 RLU
Time (s) 50.781 (TCA, TLCA: 50.782)
  RLU, fluorescence trace: 628.153 RLU
Time (s) 52.781 (TCA, TLCA: 52.782)
  RLU, fluorescence trace: 608.216 RLU
Time (s) 54.781 (TCA, TLCA: 54.782)
  RLU, fluorescence trace: 673.422 RLU
Time (s) 56.781 (TCA, TLCA: 56.782)
  RLU, fluorescence trace: 649.648 RLU
Time (s) 58.781 (TCA, TLCA: 58.782)
  RLU, fluorescence trace: 665.81 RLU
Time (s) 60.781 (TCA, TLCA: 60.782)
  RLU, fluorescence trace: 679.484 RLU
Time (s) 62.781 (TCA, TLCA: 62.782)
  RLU, fluorescence trace: 679.42 RLU
Time (s) 64.781 (TCA, TLCA: 64.782)
  RLU, fluorescence trace: 662.359 RLU
Time (s) 66.781 (TCA, TLCA: 66.782)
  RLU, fluorescence trace: 681.18 RLU
Time (s) 68.781 (TCA, TLCA: 68.782)
  RLU, fluorescence trace: 661.786 RLU
Time (s) 70.781 (TCA, TLCA: 70.782)
  RLU, fluorescence trace: 663.821 RLU
Time (s) 72.781 (TCA, TLCA: 72.782)
  RLU, fluorescence trace: 677.656 RLU
Time (s) 74.781 (TCA, TLCA: 74.782)
  RLU, fluorescence trace: 687.298 RLU
Time (s) 76.781 (TCA, TLCA: 76.782)
  RLU, fluorescence trace: 685.082 RLU
Time (s) 78.781 (TCA, TLCA: 78.782)
  RLU, fluorescence trace: 661.065 RLU
Time (s) 80.781 (TCA, TLCA: 80.782)
  RLU, fluorescence trace: 659.476 RLU
Time (s) 82.781 (TCA, TLCA: 82.782)
  RLU, fluorescence trace: 652.14 RLU
Time (s) 84.781 (TCA, TLCA: 84.782)
  RLU, fluorescence trace: 621.974 RLU
Time (s) 86.781 (TCA, TLCA: 86.782)
  RLU, fluorescence trace: 644.971 RLU
Time (s) 88.781 (TCA, TLCA: 88.782)
  RLU, fluorescence trace: 652.467 RLU
Time (s) 90.781 (TCA, TLCA: 90.782)
  RLU, fluorescence trace: 634.908 RLU
Time (s) 92.781 (TCA, TLCA: 92.782)
  RLU, fluorescence trace: 616.215 RLU
Time (s) 94.781 (TCA, TLCA: 94.782)
  RLU, fluorescence trace: 623.143 RLU
Time (s) 96.781 (TCA, TLCA: 96.782)
  RLU, fluorescence trace: 577.048 RLU
Time (s) 98.781 (TCA, TLCA: 98.782)
  RLU, fluorescence trace: 590.83 RLU
Time (s) 100.781 (TCA, TLCA: 100.782)
  RLU, fluorescence trace: 594.46 RLU
Time (s) 102.781 (TCA, TLCA: 102.782)
  RLU, fluorescence trace: 570.853 RLU
Time (s) 104.781 (TCA, TLCA: 104.782)
  RLU, fluorescence trace: 535.832 RLU
Time (s) 106.781 (TCA, TLCA: 106.782)
  RLU, fluorescence trace: 576.036 RLU
Time (s) 108.781 (TCA, TLCA: 108.782)
  RLU, fluorescence trace: 552.984 RLU
Time (s) 110.781 (TCA, TLCA: 110.782)
  RLU, fluorescence trace: 539.61 RLU
Time (s) 112.781 (TCA, TLCA: 112.782)
  RLU, fluorescence trace: 529.912 RLU
Time (s) 114.781 (TCA, TLCA: 114.782)
  RLU, fluorescence trace: 525.649 RLU
Time (s) 116.781 (TCA, TLCA: 116.782)
  RLU, fluorescence trace: 514.781 RLU
Time (s) 118.781 (TCA, TLCA: 118.782)
  RLU, fluorescence trace: 515.049 RLU
Time (s) 120.781 (TCA, TLCA: 120.782)
  RLU, fluorescence trace: 488.175 RLU
Time (s) 122.781 (TCA, TLCA: 122.782)
  RLU, fluorescence trace: 489.541 RLU
Time (s) 124.781 (TCA, TLCA: 124.782)
  RLU, fluorescence trace: 470.085 RLU
Time (s) 126.781 (TCA, TLCA: 126.782)
  RLU, fluorescence trace: 464.513 RLU
Time (s) 128.781 (TCA, TLCA: 128.782)
  RLU, fluorescence trace: 464.071 RLU
Time (s) 130.781 (TCA, TLCA: 130.782)
  RLU, fluorescence trace: 466.285 RLU
Time (s) 132.781 (TCA, TLCA: 132.782)
  RLU, fluorescence trace: 460.578 RLU
Time (s) 134.781 (TCA, TLCA: 134.782)
  RLU, fluorescence trace: 427.673 RLU
Time (s) 136.781 (TCA, TLCA: 136.782)
  RLU, fluorescence trace: 445.361 RLU
Time (s) 137.547
  RLU, fluorescence trace: 436.003 RLU
Time (s) 143.547
  RLU, fluorescence trace: 408.618 RLU
Time (s) 149.547
  RLU, fluorescence trace: 386.336 RLU
Time (s) 155.547
  RLU, fluorescence trace: 351.767 RLU
Time (s) 161.547
  RLU, fluorescence trace: 346.602 RLU
Time (s) 167.547
  RLU, fluorescence trace: 335.172 RLU
Time (s) 173.547
  RLU, fluorescence trace: 264.873 RLU
Time (s) 179.547
  RLU, fluorescence trace: 265.3 RLU
Time (s) 185.547
  RLU, fluorescence trace: 242.782 RLU
Time (s) 191.547
  RLU, fluorescence trace: 246.932 RLU
Time (s) 197.547
  RLU, fluorescence trace: 258.506 RLU
Time (s) 203.547
  RLU, fluorescence trace: 232.756 RLU
Time (s) 209.547
  RLU, fluorescence trace: 219.78 RLU
Time (s) 215.547
  RLU, fluorescence trace: 251.011 RLU
Time (s) 221.547
  RLU, fluorescence trace: 260.591 RLU
Time (s) 227.547
  RLU, fluorescence trace: 271.039 RLU
Time (s) 233.547
  RLU, fluorescence trace: 291.66 RLU
Time (s) 239.547
  RLU, fluorescence trace: 269.732 RLU
Time (s) 245.547
  RLU, fluorescence trace: 266.514 RLU
Time (s) 293.547
  RLU, fluorescence trace: 239.384 RLU
Time (s) 299.547
  RLU, fluorescence trace: 250.874 RLU
Time (s) 305.547
  RLU, fluorescence trace: 250.223 RLU
Time (s) 311.547
  RLU, fluorescence trace: 248.529 RLU
Time (s) 317.547
  RLU, fluorescence trace: 268.105 RLU
Time (s) 323.547
  RLU, fluorescence trace: 278.662 RLU
Time (s) 329.547
  RLU, fluorescence trace: 259.586 RLU
Time (s) 335.547
  RLU, fluorescence trace: 285.984 RLU
Time (s) 341.547
  RLU, fluorescence trace: 283.853 RLU
Time (s) 347.547
  RLU, fluorescence trace: 275.523 RLU
Time (s) 353.547
  RLU, fluorescence trace: 309.056 RLU
Time (s) 359.547
  RLU, fluorescence trace: 277.364 RLU
Lowest concentration with significantly increased fluorescence vs empty vector (p < 0.01)
  Activation threshold concentration TAS2R4: 30 µM
